# From patent US20090048269A1 (AstraZeneca AB, priority 2007, published 2009)
# Tests used:
# [1] = target: T1, human ALK5 (Homo sapiens, UniProt P36897); test: ALK5 Enzyme Assay 1; format: biochemical; design: 6His tagged ALK5 protein (amino acids 162-503) expressed in insect cells; 6His; made in house; host or cells: insect cells
# T1 sequence (P36897 162-503): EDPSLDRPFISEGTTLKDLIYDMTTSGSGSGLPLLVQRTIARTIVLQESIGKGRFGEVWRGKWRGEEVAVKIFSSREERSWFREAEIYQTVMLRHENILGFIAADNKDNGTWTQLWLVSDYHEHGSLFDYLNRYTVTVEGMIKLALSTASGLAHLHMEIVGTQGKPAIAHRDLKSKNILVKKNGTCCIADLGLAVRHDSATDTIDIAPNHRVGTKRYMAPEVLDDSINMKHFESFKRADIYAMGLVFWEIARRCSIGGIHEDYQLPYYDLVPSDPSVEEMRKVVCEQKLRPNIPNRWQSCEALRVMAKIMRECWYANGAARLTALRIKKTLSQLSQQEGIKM
# Method: This assay measures the ability of a compound to bind to and inhibit the activity of ALK5 protein in vitro. […] Assay measurements were performed in assay buffer comprising 60 mM HEPES pH 7.4, 3 mM MgCl2, 3 mM MnCl2, 3 μM Na orthovanadate, 1.2 mM DTT and 0.05% PEG2000. […] Reactions were performed in the presence of 200 μg/mL casein (Sigma-Aldrich C4765-10ML), 200 ng/mL ALK5, 0.5 μM ATP (Sigma-Aldrich A7699), 1 μCi/mL γ-33P ATP. Following addition of casein, ATP and compound, reactions were initiated by adding ALK5 enzyme and reactions run for 90 minutes. After incubation reactions were terminated by addition of 20 μL per well of 50% orthophosphoric acid. 20 minutes after addition of 70% v/v TCA, precipitated protein was transferred to GF/C 96 well plates using a Tomtec harvester with 1.5% orthophosphoric acid. […] All reactions were performed under linear kinetics.
# [2] = test system: TGFβ1 mediated smad2 nuclear translocation; test: Cell Assay (Smad2 Redistribution Assay, MDA-MB-468 Smad2-EGFP cells); format: cell-based; conditions: Homo sapiens, read-out: CAA: cell assay activity
# Source text: Ligand mediated translocation of R-Smads (Smads 1,2,3,5,8) is a well-documented phenomenon in a variety of cell types. (Derynck, R. and Zhang, Y., 2003, Nature, 425, 577-584, Shi, Y. and Massague, J., 2003, Cell, 113, 685-700). Specifically TGFβ1 and TGFβ3 cause phosphorylation and nuclear translocation of Smad2 and Smad3 transcription factors. Thus compound inhibition of TGFβsignalling can be estimated by measuring cellular distribution of Smad2 or 3 under activated TGFβpathway. The Smad2 Redistribution™ Assay (Fisher BioImage ApS) was used to assess in vitro cellular activity of compounds of interest. The breast adenocarcinoma MDA-MB-468 parent cell line was used to create a recombinant cell line, MDA-MB-468 PS213 I GScl4C8 containing Smad2 fused to the C-terminus of enhanced green fluorescent protein (Smad2-EGFP). This enables monitoring of cellular distribution of Smad2 using high throughput fluorescence microscopy.
# This assay measures the ability of compounds to inhibit TGFβ1 mediated smad2 nuclear translocation. Compounds dose ranges were created by diluting in 100% DMSO and then further into assay media (RPMI1640, 1% FCS, 10 mM HEPES pH 7.4). Cells were plated in 96 well Packard View plates at 8×10^3 per well in 100 μL RPMI1640, 10% FCS, 0.5 mg/mL geneticin and grown for 48 hrs. […] Plates were then read on an ArrayScan Vti instrument to determine nuclear to cytoplasmic staining. […]
# [3] = IT6 (abbreviation not defined)
# [4] = target: T1, human ALK5; test: ALK5 Enzyme Assay 2 (fluorescence polarisation probe displacement); format: binding; design: 6His tagged human ALK5 (residues162-503) was grown and purified from insect cells; 6His; made in house; host or cells: insect cells
# Method in brief: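 Recombinant ALK5 (3 μg/mL) incubated with test compound in 50 mM HEPES pH7.4, 10 mM MgCl2, 1 mM DTT, 0.01% CHAPS. Displacement of a fluorescent quinazoline-based ALK5 probe (50 nM final) in presence of 1 μM ATP read by fluorescence polarisation.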
# [5] = read-out: EAA: activity (μM) using Enzyme Assay 1
# [6] = read-out: EAA2: activity (μM) using Enzyme Assay 2
smiles,measurement,setting,value
"COc1cc(Nc2cc(Oc3ccc(C)nc3-c3cccc(C)c3)ccn2)cc(OC)c1OC [Example 57, 4-[6-Methyl-2-(3-methylphenyl)pyridin-3-yl]oxy-N-(3,4,5-trimethoxyphenyl)-pyridin-2-amine]",IC50,[1]; [5],0.0154 µM
same,IC50,[2],90.4 nM
"CNC(=O)c1nc(C)ccc1Oc1ccnc(Nc2ccccc2)c1 [Example 97, 3-(2-Anilinopyridin-4-yl)oxy-N,6-dimethylpyridine-2-carboxamide]",IT6,[3],0.9458
same,IC50,[4]; [6],0.348 µM
"CC(=O)Nc1cc(Nc2cc(Oc3cc(C)c(C)nc3-c3ccccn3)ccn2)ccc1C [Example 16, N-(5-{[4-(5,6-Dimethyl-2-pyridin-2-yl-pyridin-3-yl)oxypyridin-2-yl]amino}-2-methyl-phenyl)acetamide]",IC50,[1]; [5],0.0128 µM
same,IC50,[4]; [6],0.00602 µM
"Cc1cc(Oc2ccnc(Nc3cccc(CO)c3)c2)c(-c2ccccn2)nc1C [Example 38, (3-{[4-(5,6-Dimethyl-2-pyridin-2-yl-pyridin-3-yl)-oxypyridin-2-yl]amino}phenyl)methanol]",IC50,[1]; [5],0.00977 µM
same,IC50,[4]; [6],0.00378 µM
"COc1cc(Nc2cc(Oc3ccc(C)nc3-c3ccccc3)ccn2)cc(OC)c1OC [Example 45, 4-(6-Methyl-2-phenyl-pyridin-3-yl)oxy-N-(3,4,5-trimethoxy-phenyl)pyridin-2-amine]",IC50,[1]; [5],0.00537 µM
same,IC50,[4]; [6],0.00799 µM
"COc1ccccc1Nc1cc(Oc2cc(C)c(C)nc2-c2ccccn2)ccn1 [Example 19, 4-(5,6-Dimethyl-2-pyridin-2-yl-pyridin-3-y1)oxy-N-(2-methoxy-phenyl)-pyridin-2-amine]",IC50,[1]; EAA: activity (μM) using Enzyme Assay 1,0.0128 µM
same,IC50,[4],0.00216 µM
"Cc1cc(Oc2ccnc(Nc3ccc(C(=O)N(C)C)cc3)c2)c(-c2ccccn2)nc1C [Example 27, 4-{[4-(5,6-Dimethyl-2-pyridin-2-yl-pyridin-3-yl)oxypyridin-2-yl]-amino}-N,N-dimethyl-benzamide]",IC50,[1]; [5],0.00706 µM
same,IC50,[4]; [6],0.0124 µM
"Cc1cc(Oc2ccnc(Nc3cccc(C#N)c3)c2)c(-c2ccccn2)nc1C [Example 41, 3-{[4-(5,6-Dimethyl-2-pyridin-2-yl-pyridin-3-yl)oxypyridin-2-yl]-amino}-benzonitrile]",IC50,[1]; [5],0.0141 µM
same,IC50,[4]; [6],0.0123 µM
